Our source for the viability, T/C values is PubChem BioAssay AID1963837 (Molecular Pharmacology Branch, DTP, NCI, 2024).
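Also: spheroids exposed to drugs for seven days before readout.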

The test system of the first experiment is 843126-344-R-J1-PDC complex spheroid viability. As to the kind of experiment: Anticancer human tumor 843126-344-R-J1-PDC patient-derived melanoma cell line growth inhibition [POLQ]. To be noted: second compound 3.16 µM; first compound 0.1 µM; active compounds read low. In outline: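 PDC + HUVEC + MSC complex spheroids; POLQ inhibitors ± partner drugs; top conc. at/near clinical Cmax, else 10 microM (SN-38 1 microM), half-log dilutions; 37 degrees C, 5% CO2.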
For `CCCS(=O)(=O)Nc1ccc(F)c(C(=O)c2c[nH]c3ncc(-c4ccc(Cl)cc4)cc23)c1F` + COC1C(OC(N)=O)C(O)C(Oc2ccc3c(O)c(NC(=O)c4ccc(O)c(CC=C(C)C)c4)c(=O)oc3c2C)OC1(C)C, the viability, T/C was 77.9%.
The same measure, in the same setting: in the case of `CNCc1ccc(-c2[nH]c3cc(F)cc4c3c2CCNC4=O)cc1` + COC1C(OC(N)=O)C(O)C(Oc2ccc3c(O)c(NC(=O)c4ccc(O)c(CC=C(C)C)c4)c(=O)oc3c2C)OC1(C)C it was 96.9%; in that of `COc1cccc(OCCCN)c1-c1cc(Nc2cnc(C#N)cn2)n[nH]1` + COC1C(OC(N)=O)C(O)C(Oc2ccc3c(O)c(NC(=O)c4ccc(O)c(CC=C(C)C)c4)c(=O)oc3c2C)OC1(C)C, 68.2%.
Still for that read-out and setting: the figure for `O=C(c1cc(Cc2n[nH]c(=O)c3ccccc23)ccc1F)N1CCN(C(=O)C2CC2)CC1` + COC1C(OC(N)=O)C(O)C(Oc2ccc3c(O)c(NC(=O)c4ccc(O)c(CC=C(C)C)c4)c(=O)oc3c2C)OC1(C)C is 81.7%.

The experiment is the same for the next values; noted with them: second compound 3.16 µM; first compound 0.316 µM; active compounds read low.
On to `CCCS(=O)(=O)Nc1ccc(F)c(C(=O)c2c[nH]c3ncc(-c4ccc(Cl)cc4)cc23)c1F` + COC1C(OC(N)=O)C(O)C(Oc2ccc3c(O)c(NC(=O)c4ccc(O)c(CC=C(C)C)c4)c(=O)oc3c2C)OC1(C)C, for which the viability, T/C was 91.2%.
Still for that read-out and setting: the figure for `CNCc1ccc(-c2[nH]c3cc(F)cc4c3c2CCNC4=O)cc1` + COC1C(OC(N)=O)C(O)C(Oc2ccc3c(O)c(NC(=O)c4ccc(O)c(CC=C(C)C)c4)c(=O)oc3c2C)OC1(C)C is 92%; for `COc1cccc(OCCCN)c1-c1cc(Nc2cnc(C#N)cn2)n[nH]1` + COC1C(OC(N)=O)C(O)C(Oc2ccc3c(O)c(NC(=O)c4ccc(O)c(CC=C(C)C)c4)c(=O)oc3c2C)OC1(C)C it is 49.4%.
The same measure, in the same setting: in the case of `O=C(c1cc(Cc2n[nH]c(=O)c3ccccc23)ccc1F)N1CCN(C(=O)C2CC2)CC1` + COC1C(OC(N)=O)C(O)C(Oc2ccc3c(O)c(NC(=O)c4ccc(O)c(CC=C(C)C)c4)c(=O)oc3c2C)OC1(C)C it was 106%.

The same experiment, now with this note: second compound 3.16 µM; first compound 1 µM; active compounds read low.
Turning to `CCCS(=O)(=O)Nc1ccc(F)c(C(=O)c2c[nH]c3ncc(-c4ccc(Cl)cc4)cc23)c1F` + COC1C(OC(N)=O)C(O)C(Oc2ccc3c(O)c(NC(=O)c4ccc(O)c(CC=C(C)C)c4)c(=O)oc3c2C)OC1(C)C, the viability, T/C was 72.6%.
On the same count and under the same terms, the figure for `CNCc1ccc(-c2[nH]c3cc(F)cc4c3c2CCNC4=O)cc1` + COC1C(OC(N)=O)C(O)C(Oc2ccc3c(O)c(NC(=O)c4ccc(O)c(CC=C(C)C)c4)c(=O)oc3c2C)OC1(C)C is 101%; for `COc1cccc(OCCCN)c1-c1cc(Nc2cnc(C#N)cn2)n[nH]1` + COC1C(OC(N)=O)C(O)C(Oc2ccc3c(O)c(NC(=O)c4ccc(O)c(CC=C(C)C)c4)c(=O)oc3c2C)OC1(C)C it is 31.8%.
On the same count and under the same terms, the figure for `O=C(c1cc(Cc2n[nH]c(=O)c3ccccc23)ccc1F)N1CCN(C(=O)C2CC2)CC1` + COC1C(OC(N)=O)C(O)C(Oc2ccc3c(O)c(NC(=O)c4ccc(O)c(CC=C(C)C)c4)c(=O)oc3c2C)OC1(C)C is 76.5%.

The experiment is the same for the next values; noted with them: second compound 3.16 µM; first compound 3.16 µM; active compounds read low.
Turning to `CCCS(=O)(=O)Nc1ccc(F)c(C(=O)c2c[nH]c3ncc(-c4ccc(Cl)cc4)cc23)c1F` + COC1C(OC(N)=O)C(O)C(Oc2ccc3c(O)c(NC(=O)c4ccc(O)c(CC=C(C)C)c4)c(=O)oc3c2C)OC1(C)C, the viability, T/C is 77.9%.
On the same count and under the same terms, in the case of `CNCc1ccc(-c2[nH]c3cc(F)cc4c3c2CCNC4=O)cc1` + COC1C(OC(N)=O)C(O)C(Oc2ccc3c(O)c(NC(=O)c4ccc(O)c(CC=C(C)C)c4)c(=O)oc3c2C)OC1(C)C it was 82.2%; in that of `O=C(c1cc(Cc2n[nH]c(=O)c3ccccc23)ccc1F)N1CCN(C(=O)C2CC2)CC1` + COC1C(OC(N)=O)C(O)C(Oc2ccc3c(O)c(NC(=O)c4ccc(O)c(CC=C(C)C)c4)c(=O)oc3c2C)OC1(C)C, 83.5%.

Staying with this experiment, now noted: second compound 3.16 µM; first compound 10 µM; active compounds read low.
For `CCCS(=O)(=O)Nc1ccc(F)c(C(=O)c2c[nH]c3ncc(-c4ccc(Cl)cc4)cc23)c1F` + COC1C(OC(N)=O)C(O)C(Oc2ccc3c(O)c(NC(=O)c4ccc(O)c(CC=C(C)C)c4)c(=O)oc3c2C)OC1(C)C, the viability, T/C was 77.2%.
On the same count and under the same terms, in the case of `CNCc1ccc(-c2[nH]c3cc(F)cc4c3c2CCNC4=O)cc1` + COC1C(OC(N)=O)C(O)C(Oc2ccc3c(O)c(NC(=O)c4ccc(O)c(CC=C(C)C)c4)c(=O)oc3c2C)OC1(C)C it was 85.4%; in that of `O=C(c1cc(Cc2n[nH]c(=O)c3ccccc23)ccc1F)N1CCN(C(=O)C2CC2)CC1` + COC1C(OC(N)=O)C(O)C(Oc2ccc3c(O)c(NC(=O)c4ccc(O)c(CC=C(C)C)c4)c(=O)oc3c2C)OC1(C)C, 66.1%.

The same experiment, now with this note: second compound 10 µM; first compound 0.00316 µM; active compounds read low.
As to `COc1cccc(OCCCN)c1-c1cc(Nc2cnc(C#N)cn2)n[nH]1` + COC1C(OC(N)=O)C(O)C(Oc2ccc3c(O)c(NC(=O)c4ccc(O)c(CC=C(C)C)c4)c(=O)oc3c2C)OC1(C)C, the viability, T/C is 72.7%.

Still in this experiment, the particulars now being: second compound 10 µM; first compound 0.01 µM; active compounds read low.
Regarding `COc1cccc(OCCCN)c1-c1cc(Nc2cnc(C#N)cn2)n[nH]1` + COC1C(OC(N)=O)C(O)C(Oc2ccc3c(O)c(NC(=O)c4ccc(O)c(CC=C(C)C)c4)c(=O)oc3c2C)OC1(C)C, the viability, T/C is 76.2%.

The experiment is the same for the next values; noted with them: second compound 10 µM; first compound 0.0316 µM; active compounds read low.
Take `CCCS(=O)(=O)Nc1ccc(F)c(C(=O)c2c[nH]c3ncc(-c4ccc(Cl)cc4)cc23)c1F` + COC1C(OC(N)=O)C(O)C(Oc2ccc3c(O)c(NC(=O)c4ccc(O)c(CC=C(C)C)c4)c(=O)oc3c2C)OC1(C)C: the viability, T/C is 83.2%.
The same measure, in the same setting: in the case of `CNCc1ccc(-c2[nH]c3cc(F)cc4c3c2CCNC4=O)cc1` + COC1C(OC(N)=O)C(O)C(Oc2ccc3c(O)c(NC(=O)c4ccc(O)c(CC=C(C)C)c4)c(=O)oc3c2C)OC1(C)C it was 78.6%.
Regarding `COc1cccc(OCCCN)c1-c1cc(Nc2cnc(C#N)cn2)n[nH]1` + COC1C(OC(N)=O)C(O)C(Oc2ccc3c(O)c(NC(=O)c4ccc(O)c(CC=C(C)C)c4)c(=O)oc3c2C)OC1(C)C, the viability, T/C was 70.2%.
On the same count and under the same terms, in the case of `O=C(c1cc(Cc2n[nH]c(=O)c3ccccc23)ccc1F)N1CCN(C(=O)C2CC2)CC1` + COC1C(OC(N)=O)C(O)C(Oc2ccc3c(O)c(NC(=O)c4ccc(O)c(CC=C(C)C)c4)c(=O)oc3c2C)OC1(C)C it was 91%.

Still in this experiment, the particulars now being: second compound 10 µM; first compound 0.1 µM; active compounds read low.
With `CCCS(=O)(=O)Nc1ccc(F)c(C(=O)c2c[nH]c3ncc(-c4ccc(Cl)cc4)cc23)c1F` + COC1C(OC(N)=O)C(O)C(Oc2ccc3c(O)c(NC(=O)c4ccc(O)c(CC=C(C)C)c4)c(=O)oc3c2C)OC1(C)C, the viability, T/C is 106%.
For `CNCc1ccc(-c2[nH]c3cc(F)cc4c3c2CCNC4=O)cc1` + COC1C(OC(N)=O)C(O)C(Oc2ccc3c(O)c(NC(=O)c4ccc(O)c(CC=C(C)C)c4)c(=O)oc3c2C)OC1(C)C, the viability, T/C was 97%.
Turning to `COc1cccc(OCCCN)c1-c1cc(Nc2cnc(C#N)cn2)n[nH]1` + COC1C(OC(N)=O)C(O)C(Oc2ccc3c(O)c(NC(=O)c4ccc(O)c(CC=C(C)C)c4)c(=O)oc3c2C)OC1(C)C, the viability, T/C was 55.5%.
Same read-out and setting: in the case of `O=C(c1cc(Cc2n[nH]c(=O)c3ccccc23)ccc1F)N1CCN(C(=O)C2CC2)CC1` + COC1C(OC(N)=O)C(O)C(Oc2ccc3c(O)c(NC(=O)c4ccc(O)c(CC=C(C)C)c4)c(=O)oc3c2C)OC1(C)C it was 72%.

Staying with this experiment, now noted: second compound 10 µM; first compound 0.316 µM; active compounds read low.
`CCCS(=O)(=O)Nc1ccc(F)c(C(=O)c2c[nH]c3ncc(-c4ccc(Cl)cc4)cc23)c1F` + COC1C(OC(N)=O)C(O)C(Oc2ccc3c(O)c(NC(=O)c4ccc(O)c(CC=C(C)C)c4)c(=O)oc3c2C)OC1(C)C: the viability, T/C is 83.2%.
On the same count and under the same terms, the figure for `CNCc1ccc(-c2[nH]c3cc(F)cc4c3c2CCNC4=O)cc1` + COC1C(OC(N)=O)C(O)C(Oc2ccc3c(O)c(NC(=O)c4ccc(O)c(CC=C(C)C)c4)c(=O)oc3c2C)OC1(C)C is 81%; for `COc1cccc(OCCCN)c1-c1cc(Nc2cnc(C#N)cn2)n[nH]1` + COC1C(OC(N)=O)C(O)C(Oc2ccc3c(O)c(NC(=O)c4ccc(O)c(CC=C(C)C)c4)c(=O)oc3c2C)OC1(C)C it is 40.8%; for `O=C(c1cc(Cc2n[nH]c(=O)c3ccccc23)ccc1F)N1CCN(C(=O)C2CC2)CC1` + COC1C(OC(N)=O)C(O)C(Oc2ccc3c(O)c(NC(=O)c4ccc(O)c(CC=C(C)C)c4)c(=O)oc3c2C)OC1(C)C it is 96.1%.

The experiment is the same for the next values; noted with them: second compound 10 µM; first compound 1 µM; active compounds read low.
With `CCCS(=O)(=O)Nc1ccc(F)c(C(=O)c2c[nH]c3ncc(-c4ccc(Cl)cc4)cc23)c1F` + COC1C(OC(N)=O)C(O)C(Oc2ccc3c(O)c(NC(=O)c4ccc(O)c(CC=C(C)C)c4)c(=O)oc3c2C)OC1(C)C, the viability, T/C is 75.2%.
On the same count and under the same terms, in the case of `CNCc1ccc(-c2[nH]c3cc(F)cc4c3c2CCNC4=O)cc1` + COC1C(OC(N)=O)C(O)C(Oc2ccc3c(O)c(NC(=O)c4ccc(O)c(CC=C(C)C)c4)c(=O)oc3c2C)OC1(C)C it was 100%; in that of `COc1cccc(OCCCN)c1-c1cc(Nc2cnc(C#N)cn2)n[nH]1` + COC1C(OC(N)=O)C(O)C(Oc2ccc3c(O)c(NC(=O)c4ccc(O)c(CC=C(C)C)c4)c(=O)oc3c2C)OC1(C)C, 37.2%; in that of `O=C(c1cc(Cc2n[nH]c(=O)c3ccccc23)ccc1F)N1CCN(C(=O)C2CC2)CC1` + COC1C(OC(N)=O)C(O)C(Oc2ccc3c(O)c(NC(=O)c4ccc(O)c(CC=C(C)C)c4)c(=O)oc3c2C)OC1(C)C, 80.6%.

Still in this experiment, the particulars now being: second compound 10 µM; first compound 3.16 µM; active compounds read low.
With `CCCS(=O)(=O)Nc1ccc(F)c(C(=O)c2c[nH]c3ncc(-c4ccc(Cl)cc4)cc23)c1F` + COC1C(OC(N)=O)C(O)C(Oc2ccc3c(O)c(NC(=O)c4ccc(O)c(CC=C(C)C)c4)c(=O)oc3c2C)OC1(C)C, the viability, T/C was 75.3%.
As to `CNCc1ccc(-c2[nH]c3cc(F)cc4c3c2CCNC4=O)cc1` + COC1C(OC(N)=O)C(O)C(Oc2ccc3c(O)c(NC(=O)c4ccc(O)c(CC=C(C)C)c4)c(=O)oc3c2C)OC1(C)C, the viability, T/C is 85.9%.
Still for that read-out and setting: in the case of `O=C(c1cc(Cc2n[nH]c(=O)c3ccccc23)ccc1F)N1CCN(C(=O)C2CC2)CC1` + COC1C(OC(N)=O)C(O)C(Oc2ccc3c(O)c(NC(=O)c4ccc(O)c(CC=C(C)C)c4)c(=O)oc3c2C)OC1(C)C it was 80.6%.

Staying with this experiment, now noted: second compound 10 µM; first compound 10 µM; active compounds read low.
For `CCCS(=O)(=O)Nc1ccc(F)c(C(=O)c2c[nH]c3ncc(-c4ccc(Cl)cc4)cc23)c1F` + COC1C(OC(N)=O)C(O)C(Oc2ccc3c(O)c(NC(=O)c4ccc(O)c(CC=C(C)C)c4)c(=O)oc3c2C)OC1(C)C, the viability, T/C is 64.3%.
Consider `CNCc1ccc(-c2[nH]c3cc(F)cc4c3c2CCNC4=O)cc1` + COC1C(OC(N)=O)C(O)C(Oc2ccc3c(O)c(NC(=O)c4ccc(O)c(CC=C(C)C)c4)c(=O)oc3c2C)OC1(C)C, for which the viability, T/C was 100%.
Same read-out and setting: in the case of `O=C(c1cc(Cc2n[nH]c(=O)c3ccccc23)ccc1F)N1CCN(C(=O)C2CC2)CC1` + COC1C(OC(N)=O)C(O)C(Oc2ccc3c(O)c(NC(=O)c4ccc(O)c(CC=C(C)C)c4)c(=O)oc3c2C)OC1(C)C it was 61%.

One may read the viability, T/C as the ratio of treated to control.
